Measurements: US11117868B2, “Edaravone salt” (Treeway TW001 B.V., priority 2017, dated 2021)
Converted amounts (≈) assume the structure as drawn. “And” between values parts separate entries of the source, which are not always exact repeats. Equal entries are not always repeated. Blank lines part the entries; values can stand above or below the molecule they belong to.

Legend:
[1] = Intrinsic dissolution rate in water; assay type: physicochemical
Procedure: The intrinsic dissolution rate in water of the edaravone salt was 0.37 mg/min/cm^2, whereas the dissolution rate of the freebase was 0.22 mg/min/cm^2.

[2] = Solubility in water after 7 hours equilibration; assay type: physicochemical
[3] = Hygroscopicity / conversion of polymorph through absorption of water; assay type: physicochemical
[4] = Storage stability at controlled temperature and relative humidity
[5] = cited from earlier work

Molecule: 3-methyl-1-phenyl-2-pyrazolin-5-one hemi-napadisylate monohydrate [Example 1]
- intrinsic dissolution rate in water [1]: 0.37 mg/min/cm^2
- solubility in water ([2]; monohydrate): 2800 µg/mL and 3200 µg/mL
- hygroscopicity [3]: non-hygroscopic
- stability (in words) [4]: very stable
- degradation on storage ([4]; kept for 28 days at 40° C. and 75% RH): without showing significant degradation

- hygroscopicity [3]: non-hygroscopic
Molecule: CC1=NN(c2ccccc2)C(=O)C1.CC1=NN(c2ccccc2)C(=O)C1.O.O.O=S(=O)(O)c1cccc2c(S(=O)(=O)O)cccc12 [Example 4, 3-methyl-1-phenyl-2-pyrazolin-5-one hemi-napadisylate monohydrate]

- relative humidity at which it is converted into polymorph B through absorption of water ([3]; conversion into polymorph B): > 50 % RH
Molecule: CC1=NN(c2ccccc2)C(=O)C1.CC1=NN(c2ccccc2)C(=O)C1.O.O=S(=O)(O)c1cccc2c(S(=O)(=O)O)cccc12 [Example 3, 3-methyl-1-phenyl-2-pyrazolin-5-one hemi-napadisylate hemihydrate]

Molecule: anhydrous 3-methyl-1-phenyl-2-pyrazolin-5-one napadisylate [Example 6]
- relative humidity at which it is converted into polymorph D through absorption of water ([3]; conversion into polymorph D): > 75 % RH
- degradation on storage ([4]; kept for 2 days at 40° C. and 75% RH): without showing significant degradation

- intrinsic dissolution rate in water [1]: 0.22 mg/min/cm^2
- solubility at 7 h ([2]; thermodynamic from solid): 2000 to 3000 µg/mL (≈ 11.5 to 17.2 mM)
Molecule: CC1=NN(c2ccccc2)C(=O)C1 [Edaravone, 3-Methyl-1-phenyl-2-pyrazolin-5-one]
- dissolution in water (in words) [5]: dissolves very slowly
